# From article PMC8358460, “Structural basis for the binding of the cancer targeting scorpion toxin, ClTx, to the vascular endothelia growth factor receptor neuropilin-1” (Current Research in Structural Biology, 2021)
# Entries after “also recorded” stand apart in the source; their conditions may differ.
# What was measured:
# [1] = molecular target: T1, human NRP1-b1 domain (Homo sapiens, UniProt O14786); assay: ITC competition: ClTx injected into NRP1-b1 in presence of EG00229; format: binding; details: 800 μM ClTx into 40 μM NRP1-b1 + 200 μM EG00229; 50 mM sodium citrate pH 5.5, 150 mM NaCl, 32 °C
# [2] = molecular target: T1, human NRP1-b1 domain; assay: NMR competition titration of 15N-ClTx/NRP1-b1 with EG00229; format: binding; details: 413 μM EG00229 added to 55 μM 15N-ClTx + 125 μM NRP1-b1; 50 mM sodium citrate pH 5.5, 150 mM NaCl, 5% D2O, 298 K
# [3] = molecular target: T1, human NRP1-b1 domain; assay: ITC measurement of binding to NRP1-b1 domain; details: pH 5.5, 32 °C
# T1 sequence (O14786 273-427): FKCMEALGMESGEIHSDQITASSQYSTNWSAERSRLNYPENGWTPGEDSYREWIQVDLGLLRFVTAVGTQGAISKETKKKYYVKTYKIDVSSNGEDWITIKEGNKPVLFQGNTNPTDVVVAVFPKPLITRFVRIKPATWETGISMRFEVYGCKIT
compound,measurement,setting,value
NC(N)=NCCC[C@H](NC(=O)c1sccc1NS(=O)(=O)c1cccc2nsnc12)C(=O)O [EG00229],inhibition of the ClTx–NRP1-b1 interaction by EG00229,[1],fully inhibited; also recorded: completely blocks chlorotoxin from binding
same,recovery of backbone signal of 15N ClTx on addition of EG00229,[2],completely recovered
same,"binding strength, in words",[3],strong binding
